Measurements as given in US10662204B2 (PFIZER INC., priority 2018, dated 2020).

Key:
[1] = target: T1, GDP-loaded KRAS (1-169) G12C, C51S, C80L, C118S (Homo sapiens, UniProt P01116, C118S/C51S/C80L/G12C); assay: Mass Spectrometry Reactivity Assay (MSRA): covalent adduct of compound and KRAS G12C, Percent Modification; type: binding; conditions: for MSRA (% modification) 10 μM 0.25 hr: 10 μM compound; for MSRA (% modification) 5.0 μM 0.017 hr: 5.0 μM compound
T1 construct: GDP-loaded KRAS (1-169) G12C, C51S, C80L, C118S
How it was run: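 Covalent labelling is measured by intact mass: deconvoluted modified and unmodified peak intensities yield percent modification. Compound, usually 5 μM or 10 μM final, reacts at room temperature with 5 μM GDP-bound KRAS G12C (1-169, C51S/C80L/C118S) in Hepes pH 7.5/NaCl/glycerol, sampled at 1, 15, 30, 60 min.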

KRAS G12C = KRAS G12C (Homo sapiens, UniProt P01116, G12C); assay: Cell Activity Assay: accumulation of GDP-bound KRAS G12C in MIAPaCa-2 cells (Raf-1 RBD capture, MSD readout); type: cell-based; parameters: endogenous in cells; host or cells: MIAPaCa-2; conditions: 6 hours, assay limit is 30.00
How it was run: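 IC50 came from a 4-parameter fit of Ras signal normalized between DMSO and full-inhibition controls. Readout: lysate GTP-Ras bound to immobilized Raf-1 RBD, quantified with pan-Ras antibody and MSD electrochemiluminescence. Lysates derived from MIAPaCa-2 cells treated 6 h with serially diluted compound, 0.3% DMSO.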

Structure (SMILES) | MSRA (% modification) 10 μM 0.25 hr [1] [%] | IC50 (KRAS G12C) [µM] | MSRA (% modification) 5.0 μM 0.017 hr [1] [%]
C=CC(=O)N1CCN(c2ncnc3c(Oc4c(Cl)c(F)cc5[nH]ncc45)nc(Cl)cc23)[C@@H](CO)C1 [Example 38A, 1-[(3R)-4-{6-chloro-8-[(5-chloro-6-fluoro-1H-indazol-4-yl)oxy]pyrido[3,4-d]pyrimidin-4-yl}-3-(hydroxymethyl)piperazin-1-yl]prop-2-en-1-one] | 56 | 0.537 | –
C=CC(=O)N1CCN(c2nc(Oc3cccc4c3CCN(C)C4)nc3c(Oc4c(C)ccc5[nH]ncc45)nccc23)CC1 [Example 38I, 1-(4-{8-[(5-methyl-1H-indazol-4-yl)oxy]-2-[(2-methyl-1,2,3,4-tetrahydro-isoquinolin-5-yl)oxy]pyrido [3,4-d]pyrimidin-4-yl}piperazin-1-yl)prop-2-en-1-one] | – | 0.055 | 55
C=CC(=O)N1CCN(c2ncnc3c(Oc4c(Cl)c(F)cc5[nH]ncc45)nc(Cl)cc23)[C@@H](C)C1 [Example 39A, 1-[(3S)-4-{6-chloro-8-[(5-chloro-6-fluoro-1H-indazol-4-yl)oxy]pyrido[3,4-d]pyrimidin-4-yl}-3-methylpiperazin-1-yl]prop-2-en-1-one] | 74 | 0.246 | –
C=CC(=O)N1CCN(c2ncnc3c(Oc4c(Cl)c(F)cc5[nH]ncc45)nc(Cl)cc23)[C@H](C)C1 [Example 40A, 1-[(3R)-4-{6-chloro-8-[(5-chloro-6-fluoro-1H-indazol-4-yl)oxy]pyrido[3,4-d]pyrimidin-4-yl}-3-methylpiperazin-1-yl]prop-2-en-1-one] | 6 | 20.9 | –
C=CC(=O)N1CCN(c2ncnc3c(Oc4c(Cl)c(F)cc5[nH]ncc45)nc(N)cc23)CC1 [Example 41A, 1-(4-{6-amino-8-[(5-chloro-6-fluoro-1H-indazol-4-yl)oxy]pyrido[3,4-d]pyrimidin-4-yl}piperazin-1-yl)prop-2-en-1-one] | 31 | 3.5 | –
C#CCCN1C[C@@H](OC)[C@H](Oc2nc(N3CCN(C(=O)C=C)CC3)c3ccnc(Oc4c(Cl)c(F)cc5[nH]ncc45)c3n2)C1 [Example 44I, 1-[4-(2-{[(3R,4R)-1-(but-3-yn-1-yl)-4-methoxy-pyrrolidin-3-yl]oxy}-8-[(5-chloro-6-fluoro-1H-indazol-4-yl)oxy]pyrido [3,4-d]pyrimidin-4-yl)piperazin-1-yl]prop-2-en-1-one] | – | 0.032 | 56
C=CC(=O)N1CCN(c2nc(O[C@@H]3CN(CCO)C[C@H]3OC)nc3c(Oc4c(Cl)c(F)cc5[nH]ncc45)nccc23)CC1 [Example 46I, 1-[4-(8-[(5-chloro-6-fluoro-1H-indazol-4-yl)oxy]-2-{[(3R,4R)-1-(2-hydroxy-ethyl)-4-methoxy-pyrrolidin-3-yl]oxy}pyrido [3,4-d]pyrimidin-4-yl)piperazin-1-yl]prop-2-en-1-one] | – | 0.285 | 70
C=CC(=O)N1CCN(c2nc(O[C@@H]3CN(C)C[C@H]3OC)nc3c(Oc4c(Cl)ccc5[nH]ncc45)nccc23)CC1 [Example 49I] | – | 0.17 | 34
C=CC(=O)N1CCN(c2nc(Oc3cccc4c3CCN(C3CC3)C4)nc3c(Oc4c(Cl)c(F)cc5[nH]ncc45)nccc23)CC1 [Example 55I, 1-(4-{8-[(5-chloro-6-fluoro-1H-indazol-4-yl)oxy]-2-[(2-cyclo-propyl-1,2,3,4-tetrahydro-isoquinolin-5-yl)oxy]pyrido [3,4-d]pyrimidin-4-yl}piperazin-1-yl)prop-2-en-1-one] | – | 0.028 | 60

These reach a lower IC50 (KRAS G12C). Values come first.

MSRA (% modification) 10 μM 0.25 hr [1] [%] | IC50 (KRAS G12C) [µM] | MSRA (% modification) 5.0 μM 0.017 hr [1] [%] | Structure (SMILES)
– | 0.023 | 81 | C=CC(=O)N1CCN(c2nc(O[C@@H]3CN(C(C)(C)C)C[C@H]3OC)nc3c(Oc4c(Cl)c(F)cc5[nH]ncc45)nccc23)CC1 [Example 52I, 1-[4-(2-{[(3R,4R)-1-tert-butyl-4-methoxy-pyrrolidin-3-yl]oxy}-8-[(5-chloro-6-fluoro-1H-indazol-4-yl)oxy]pyrido [3,4-d]pyrimidin-4-yl)piperazin-1-yl]prop-2-en-1-one]
– | 0.021 | 75 | C=CC(=O)N1CCN(c2nc(O[C@@H]3CN(C)C[C@H]3OC)nc3c(Oc4c(Cl)ccc5[nH]ncc45)nc(Cl)cc23)CC1 [Example 38G, 1-[4-(6-chloro-8-[(5-chloro-1H-indazol-4-yl)oxy]-2-{[(3R,4R)-4-methoxy-1-methylpyrrolidin-3-yl]oxy}pyrido[3,4-d]pyrimidin-4-yl)piperazin-1-yl]prop-2-en-1-one]
– | 0.021 | 70 | C=CC(=O)N1CCN(c2nc(Oc3cccc4c3CN(C)C4)nc3c(Oc4c(Cl)c(F)cc5[nH]ncc45)nccc23)CC1 [Example 41I, 1-(4-{8-[(5-chloro-6-fluoro-1H-indazol-4-yl)oxy]-2-[(2-methyl-2,3-dihydro-1H-isoindol-4-yl)oxy]pyrido [3,4-d]pyrimidin-4-yl}piperazin-1-yl)prop-2-en-1-one]
– | 0.02 | 68 | C=CC(=O)N1CCN(c2nc(O[C@@H]3CN(C)C[C@H]3OC)nc3c(Oc4c(C)c(Cl)cc5[nH]ncc45)nccc23)CC1 [Example 40I, 1-[4-(8-[(6-chloro-5-methyl-1H-indazol-4-yl)oxy]-2-{[(3R,4R)-4-methoxy-1-methyl-pyrrolidin-3-yl]oxy}pyrido [3,4-d]pyrimidin-4-yl)piperazin-1-yl]prop-2-en-1-one]
– | 0.019 | 54 | C#CCN1C[C@@H](OC)[C@H](Oc2nc(N3CCN(C(=O)C=C)CC3)c3ccnc(Oc4c(Cl)c(F)cc5[nH]ncc45)c3n2)C1 [Example 43I, 1-[4-(8-[(5-chloro-6-fluoro-1H-indazol-4-yl)oxy]-2-{[(3R,4R)-4-methoxy-1-(prop-2-yn-1-yl)pyrrolidin-3-yl]oxy}pyrido [3,4-d]pyrimidin-4-yl)piperazin-1-yl]prop-2-en-1-one]
– | 0.019 | 78 | C=CC(=O)N1CCN(c2nc(Oc3ccc(F)c4c3CN(C)CC4)nc3c(Oc4c(Cl)c(F)cc5[nH]ncc45)nccc23)CC1 [Example 54I, 1-(4-{8-[(5-chloro-6-fluoro-1H-indazol-4-yl)oxy]-2-[(5-fluoro-2-methyl-1,2,3,4-tetrahydro-isoquinolin-8-yl)oxy]pyrido [3,4-d]pyrimidin-4-yl}piperazin-1-yl)prop-2-en-1-one]
– | 0.014 | 76 | C#CCCN1C[C@@H](OC)[C@H](Oc2nc(N3CCN(C(=O)C=C)CC3)c3cc(Cl)nc(Oc4c(Cl)c(F)cc5[nH]ncc45)c3n2)C1 [Example 39G, 1-[4-(2-{[(3R,4R)-1-(but-3-yn-1-yl)-4-methoxypyrrolidin-3-yl]oxy}-6-chloro-8-[(5-chloro-6-fluoro-1H-indazol-4-yl)oxy]pyrido[3,4-d]pyrimidin-4-yl)piperazin-1-yl]prop-2-en-1-one]
– | 0.01 | 73 | C=CC(=O)N1CCN(c2nc(Oc3cccc4c3CN(C)CC4)nc3c(Oc4c(Cl)c(F)cc5[nH]ncc45)nccc23)CC1 [Example 42I, 1-(4-{8-[(5-chloro-6-fluoro-1H-indazol-4-yl)oxy]-2-[(2-methyl-1,2,3,4-tetrahydro-isoquinolin-8-yl)oxy]pyrido [3,4-d]pyrimidin-4-yl}piperazin-1-yl)prop-2-en-1-one]
– | 0.008 | 83 | C#CCN1C[C@@H](OC)[C@H](Oc2nc(N3CCN(C(=O)C=C)CC3)c3cc(Cl)nc(Oc4c(Cl)c(F)cc5[nH]ncc45)c3n2)C1 [Example 40G, 1-[4-(6-chloro-8-[(5-chloro-6-fluoro-1H-indazol-4-yl)oxy]-2-{[(3R,4R)-4-methoxy-1-(prop-2-yn-1-yl)pyrrolidin-3-yl]oxy}pyrido[3,4-d]pyrimidin-4-yl)piperazin-1-yl]prop-2-en-1-one]
– | 0.008 | 70 | C=CC(=O)N1CCN(c2nc(Oc3cccc4c3CCN(C)C4)nc3c(Oc4c(Cl)c(Cl)cc5[nH]ncc45)nccc23)CC1 [Example 50I, 1-(4-{8-[(5,6-dichloro-1H-indazol-4-yl)oxy]-2-[(2-methyl-1,2,3,4-tetrahydro-isoquinolin-5-yl)oxy]pyrido [3,4-d]pyrimidin-4-yl}piperazin-1-yl)prop-2-en-1-one]
– | 0.007 | 83 | [2H]C([2H])([2H])N1C[C@@H](OC)[C@H](Oc2nc(N3CCN(C(=O)C=C)CC3)c3cc(Cl)nc(Oc4c(Cl)c(F)cc5[nH]ncc45)c3n2)C1 [Example 41G, 1-[4-(6-chloro-8-[(5-chloro-6-fluoro-1H-indazol-4-yl)oxy]-2-{[(3R,4R)-4-methoxy-1-(^2H3)methylpyrrolidin-3-yl]oxy}pyrido[3,4-d]pyrimidin-4-yl)piperazin-1-yl]prop-2-en-1-one]
– | 0.006 | 67 | C=CC(=O)N1CCN(c2nc(Oc3cccc4c3CCN(C)C4)nc3c(Oc4c(Cl)ccc5[nH]ncc45)nccc23)CC1 [Example 48I, 1-(4-{8-[(5-chloro-1H-indazol-4-yl)oxy]-2-[(2-methyl-1,2,3,4-tetrahydro-isoquinolin-5-yl)oxy]pyrido [3,4-d]pyrimidin-4-yl}piperazin-1-yl)prop-2-en-1-one]
